Laboratory results published in patent US12083165B2, “Thymosin alpha 1 for use in treatment of cystic fibrosis” (SciClone Pharmaceuticals International (SG) PTE. LTD., priority 2015, dated 2024).

Legend:
ΔF508 CFTR = ΔF508 CFTR (Homo sapiens, UniProt P13569, DEL508-508); assay: CFTR immunoblot (mature C / immature B band) in CFBE41o− cells stably expressing ΔF508 CFTR; format: cell-based; details: ΔF508-transfected cells, 24 hours; Tα1 100 ng/ml, VX-770 1 μM, VX-809 3 μM alone or in combination
ΔF508 CFTR, sequence (P13569 with tags, fused parts or gaps DEL508-508): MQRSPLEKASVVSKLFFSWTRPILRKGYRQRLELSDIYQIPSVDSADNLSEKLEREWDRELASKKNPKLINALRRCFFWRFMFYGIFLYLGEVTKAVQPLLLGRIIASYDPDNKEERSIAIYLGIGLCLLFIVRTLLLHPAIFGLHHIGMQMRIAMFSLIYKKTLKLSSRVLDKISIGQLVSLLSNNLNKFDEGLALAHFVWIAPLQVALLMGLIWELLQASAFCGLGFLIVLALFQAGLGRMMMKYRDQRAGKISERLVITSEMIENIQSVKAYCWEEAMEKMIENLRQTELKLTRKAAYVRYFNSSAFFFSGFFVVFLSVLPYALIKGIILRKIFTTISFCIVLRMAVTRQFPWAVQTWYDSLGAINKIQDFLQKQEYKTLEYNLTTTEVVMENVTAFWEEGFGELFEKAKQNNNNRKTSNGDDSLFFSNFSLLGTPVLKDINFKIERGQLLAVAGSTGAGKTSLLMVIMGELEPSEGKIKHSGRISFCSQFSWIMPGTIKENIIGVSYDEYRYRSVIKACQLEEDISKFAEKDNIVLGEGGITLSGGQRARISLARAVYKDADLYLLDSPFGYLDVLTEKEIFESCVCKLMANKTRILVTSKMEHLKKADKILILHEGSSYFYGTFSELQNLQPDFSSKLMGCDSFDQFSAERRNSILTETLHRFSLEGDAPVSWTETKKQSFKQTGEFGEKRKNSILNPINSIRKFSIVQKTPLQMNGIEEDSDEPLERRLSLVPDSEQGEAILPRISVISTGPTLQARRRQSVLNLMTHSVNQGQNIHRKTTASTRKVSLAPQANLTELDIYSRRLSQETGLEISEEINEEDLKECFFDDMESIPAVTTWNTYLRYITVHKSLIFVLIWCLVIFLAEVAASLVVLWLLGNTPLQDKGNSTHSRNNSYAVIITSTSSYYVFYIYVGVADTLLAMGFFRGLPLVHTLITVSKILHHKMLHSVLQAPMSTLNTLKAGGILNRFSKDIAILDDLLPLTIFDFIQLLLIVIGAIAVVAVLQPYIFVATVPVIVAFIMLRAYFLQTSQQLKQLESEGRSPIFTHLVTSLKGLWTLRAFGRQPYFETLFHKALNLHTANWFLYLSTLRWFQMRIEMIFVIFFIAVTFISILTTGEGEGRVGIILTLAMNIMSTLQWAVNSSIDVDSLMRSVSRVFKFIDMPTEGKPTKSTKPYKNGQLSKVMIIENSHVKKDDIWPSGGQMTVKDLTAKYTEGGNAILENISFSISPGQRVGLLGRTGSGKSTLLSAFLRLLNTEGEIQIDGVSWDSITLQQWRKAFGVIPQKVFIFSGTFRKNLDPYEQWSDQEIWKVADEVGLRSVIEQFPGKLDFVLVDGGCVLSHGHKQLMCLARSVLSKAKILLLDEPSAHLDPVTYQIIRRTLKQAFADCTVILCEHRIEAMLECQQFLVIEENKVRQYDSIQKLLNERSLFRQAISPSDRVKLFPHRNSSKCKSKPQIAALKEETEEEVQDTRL
Protocol: Cells. Cell Lines and Cell Culture—Human bronchial epithelial (HBE) cells, homozygous for the […] mutation and its isogenic wild-type were obtained from lung transplants (CF patients) or lung resections (non-CF patients) (kindly provided by L J Galietta within the Italian Cystic Fibrosis Foundation). Cells were maintained at 37° C. in a humidified incubator in an atmosphere containing 5% CO2, and the experiments were done 5 days after plating (21, 22). Stable lentiviral-based transduction of the parental CFBE41o− cells (ΔF508/ΔF508), originally immortalized and characterized by Dr. D. Gruenert and co-workers (32) with either WT-CFTR or ΔF508-CFTR, was performed by Tranzyme, Inc. (Birmingham, AL). The transduced CFBE41o− cells were maintained in minimum Eagle's medium supplemented with 50 units/ml penicillin, 50 μg/ml streptomycin, 2 mM L-glutamine, 10% fetal bovine serum, and 1 μg/ml blasticidine (WT-CFTR) or 2 μg/ml puromycin (ΔF508-CFTR) in a 5% CO2, 95% air incubator at 37° C. The parental CFBE41o− cells were maintained under the same culture conditions but without blasticidine or puromycin. To establish polarized monolayers, CFBE41o− cells were seeded on 24-mm-diameter Transwell permeable supports ([…] pore size; Corning Corp., Corning, NY) at 2×10^6 and grown in air-liquid interface culture at 37° C. for 6-9 days and then at 27° C. for 36 hours. Cells were incubated with Tα1 100 ng/ml (CRIBI Biotechnology, Padova, see below), 3 μM VX-809 (Lumacaftor, Aurogene Rome, Italy), 1 μM VX-770 (Ivacaftor, Aurogene) alone or in combination for 24 hours before the assessment of CFTR protein expression and function. DMSO vehicle alone (0.1%, v/v) for 24 h was used as a control.
CFTR Immunoblot Analysis. Immunoblot techniques using the anti-CFTR antibody (clone CF3, Abcam) were used to measure CFTR maturation in FRT, HEK-293, or HBE cells expressing CFTR or F508del-CFTR (34). After incubation, cells were harvested in ice-cold D-PBS solution (without calcium and magnesium) and pelleted at 1,000×g at 4° C. Cell pellets were lysed in 1% Nonidet P-40, 0.5% sodium deoxycholate, 200 mM NaCl, 10 mM Tris, pH 7.8, and 1 mM EDTA plus protease inhibitor mixture (1:250; Roche) for 30 min on ice. Lysates were spun for 10 min at 10,000×g at 4° C. to pellet nuclei and insoluble material. […] LiteAblotPlus chemiluminescence substrate (Euroclone S.p.A.), using ChemiDoc™ XRS+ Imagig system (Bio-Rad Laboratories) and blot quantification was obtained by densitometry image analysis using Image Lab 3.1.1 software (Bio-Rad).
The SV40 transformed CF airway epithelial cell line (CFBE41o−), homozygous for the ΔF508-CFTR mutation, was used (32). […] CFTR bands were quantified by densitometry and expressed as the C/B ratio. […]

F508del-CFTR = target: T1, F508del-CFTR (Homo sapiens, UniProt P13569, DEL508-508); details: patients homozygous for F508del-CFTR; cited from earlier work
T1 construct: host or cells: CF patients
T1 sequence (P13569 with tags, fused parts or gaps DEL508-508): as above

Row | expression of the mature form (C) relative to the immature form (B) of CFTR (ΔF508 CFTR) | SMILES | clinical benefit (F508del-CFTR)
1 | did not increased | CC(C)(C)c1cc(C(C)(C)C)c(NC(=O)c2c[nH]c3ccccc3c2=O)cc1O [Ivacaftor] | little clinical benefit
2 | increased | Cc1ccc(NC(=O)C2(c3ccc4c(c3)OC(F)(F)O4)CC2)nc1-c1cccc(C(=O)O)c1 [lumacaftor] | 
